Measured values as given in patent EP0326331B1, “Substituted quinolines and cinnolines” (Dow AgroSciences LLC, priority 1988, dated 1989).
Read-outs that look alike come from different tables or passages of the source.

Tests used:
Format in all cases: in vivo
corn rootworm = assay: Mite/insect screen, CRW; details: read-out: CRW RESULTS %; for mortality at 24 ppm: CRW RATE 24.00 PPM
Method in brief: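 Percent mortality is evaluated once the standard exposure period ends. Test material is applied as a water dilution of an acetone/alcohol (50:50) stock carrying two sulfonate/nonionic emulsifiers (23 and 13 g per liter).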

[1] = test system: Septoria tritici (leaf blotch); assay: Test 1 greenhouse foliar spray screen, leaf blotch on wheat; details: disease control rating, foliar spray on wheat, 400 ppm (+++ at 100 ppm)
[2] = test system: Botrytis cinerea (gray mold); assay: Test 1 greenhouse foliar spray screen, gray mold on grape berries; details: disease control rating, spray on grape berries, 400 ppm (+++ at 100 ppm)
[3] = test system: Pyricularia oryzae (rice blast); assay: whole plant or invertebrate; details: disease control rating, foliar spray on rice, 400 ppm (+++ at 100 ppm)
[4] = test system: melon aphids (Aphis gossypii Glover); assay: Mite/insect screen, MA; details: Aphis gossypii, read-out: MA RESULTS %; for mortality at 400 ppm: SM & MA RATE 400 PPM
Method in brief: (§1)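 Formulation: acetone/alcohol 50:50 + sulfonate/nonionic emulsifiers, water-diluted to indicated concs. Spray both leaf surfaces to runoff, 10 psi; dry 1 h. Armyworm: 2 excised uninfested leaves in Petri dish. Score % mortality after standard exposure.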

[5] = test system: Erysiphe graminis tritici (powdery mildew); assay: Test 1 greenhouse foliar spray screen, powdery mildew on wheat; details: disease control rating, foliar spray on wheat, 400 ppm (+++ at 100 ppm)
[6] = test system: Venturia inaequalis (apple scab); assay: Test 1 greenhouse foliar spray screen, apple scab on apple seedling; details: disease control rating, foliar spray on apple seedling, 400 ppm (+++ at 100 ppm)
[7] = test system: Twospotted spider mites (Tetranychus urticae Koch); assay: Mite/insect screen, SM; details: for mortality at 200 ppm / mortality at 400 ppm: Tetranychus urticae, read-out: SM RESULTS %; for mortality at 400 ppm: SM & MA RATE 400 PPM
Method in brief: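 Compounds dissolved in 50:50 acetone/alcohol containing sulfonate/nonionic emulsifier blends, then diluted with water to the indicated concentrations. Leaves sprayed on both surfaces to runoff at 10 psi and dried one hour. Percent mortality scored after standard exposure periods.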

[8] = test system: Cercospora beticola (leaf spot); assay: Test 1 greenhouse foliar spray screen, leaf spot on sugar beet; details: disease control rating, foliar spray on sugar beet, 400 ppm (+++ at 100 ppm)
[9] = test system: Pseudoperonospora cubensis (downy mildew); assay: Test 1 greenhouse foliar spray screen, downy mildew on squash; details: disease control rating, foliar spray on squash, 400 ppm (+++ at 100 ppm)
[10] = test system: southern armyworm (Spodopetra eridania Cramer); assay: Mite/insect screen, SAW; details: Spodoptera eridania, read-out: SAW RESULTS %; for mortality at 400 ppm: SM & MA RATE 400 PPM
Method in brief: as §1

[11] = test system: Puccinia recondita tritici (leaf rust); assay: Test 1 greenhouse foliar spray screen, leaf rust on wheat; details: disease control rating, foliar spray on wheat, 400 ppm (+++ at 100 ppm)
[12] = percent mortality, CRW RATE 12.00 PPM
[13] = percent mortality, SAW, SM & MA RATE 200 PPM

Row | Structure (SMILES) | mortality at 12 ppm (corn rootworm; [12]) | mortality at 24 ppm (corn rootworm; percent mortality) | LEAF BLOT [1] | GRAY MOLD [2] | RICE BLAST [3] | mortality at 200 ppm [4, 13] | mortality at 400 ppm ([4]; percent mortality, SAW) | POWD MDEW [5] | APPL SCAB [6] | mortality at 200 ppm [7, 13] | mortality at 400 ppm ([7]; percent mortality, SAW) | LEAF SPOT [8] | DOWN MDEW [9] | mortality at 200 ppm [10, 13] | mortality at 400 ppm ([10]; percent mortality, SAW) | LEAF RUST [11] | also measured
1 | Cc1ccc2nccc(NCCc3ccc(Cl)cc3Cl)c2c1 [Example 53, .N-[2-(2,4-dichlorophenyl)ethyl]-6-methyl-4-quinolinamine] | 0% | 0% | + (20-89% control at 400 ppm) | - (0-19% control at 400 ppm) | + (20-89% control at 400 ppm) | 0% | 0% | +++ (90-100% control at 100 ppm) | - (0-19% control at 400 ppm) | 0% | 0% | +++ (90-100% control at 100 ppm) | +++ (90-100% control at 100 ppm) | 0% | 0% | + (20-89% control at 400 ppm) | –
2 | COc1cc2c(NCCc3ccccc3)cc(C)nc2cc1Cl [Example 54, 7-chloro-6-methoxy-2-methyl-N-(2-phenylethyl)-4-quinolinamine] | 0% | – | + (20-89% control at 400 ppm) | - (0-19% control at 400 ppm) | ++ (90-100% control at 400 ppm) | 0% | – | - (0-19% control at 400 ppm) | - (0-19% control at 400 ppm) | 0% | – | +++ (90-100% control at 100 ppm) | +++ (90-100% control at 100 ppm) | 0% | – | + (20-89% control at 400 ppm) | –
3 | COc1ccccc1CCNc1ccnc2ccccc12 [Example 55, N-[2-(2-methoxyphenyl)ethyl]-4-quinolinamine] | 0% | – | - (0-19% control at 400 ppm) | - (0-19% control at 400 ppm) | ++ (90-100% control at 400 ppm) | 0% | – | + (20-89% control at 400 ppm) | - (0-19% control at 400 ppm) | 0% | – | +++ (90-100% control at 100 ppm) | ++ (90-100% control at 400 ppm) | 0% | – | + (20-89% control at 400 ppm) | –
4 | Fc1ccc2nccc(NCCc3ccc(Cl)cc3)c2c1 [Example 56, N-[2-(4-chlorophenyl)ethyl]-6-fluoro-4-quinolinamine] | 0% | 0% | + (20-89% control at 400 ppm) | - (0-19% control at 400 ppm) | ++ (90-100% control at 400 ppm) | 0% | 0% | - (0-19% control at 400 ppm) | - (0-19% control at 400 ppm) | 0% | 0% | +++ (90-100% control at 100 ppm) | +++ (90-100% control at 100 ppm) | 100% | 80% | ++ (90-100% control at 400 ppm) | activity as miticides ([7]; summary statement in the description): particularly excellent activity
5 | Cc1cc(NCCc2ccc(Cl)cc2)c2cc(F)ccc2n1 [Example 57, N-[2-(4-chlorophenyl)ethyl]-2-methyl-6-fluoro-4-quinolinamine] | 0% | 0% | - (0-19% control at 400 ppm) | - (0-19% control at 400 ppm) | ++ (90-100% control at 400 ppm) | 0% | 0% | - (0-19% control at 400 ppm) | - (0-19% control at 400 ppm) | 0% | 0% | +++ (90-100% control at 100 ppm) | ++ (90-100% control at 400 ppm) | 40% | 50% | + (20-89% control at 400 ppm) | –
6 | Fc1cccc2c(NCC(c3ccccc3)C3CCCCC3)ccnc12 (stereo not shown) [Example 62, 8-fluoro-N-(2-cyclohexyl-2-phenylethyl)-4-quinolinamine] | – | 0% | + (20-89% control at 400 ppm) | - (0-19% control at 400 ppm) | ++ (90-100% control at 400 ppm) | – | 0% | - (0-19% control at 400 ppm) | - (0-19% control at 400 ppm) | – | 0% | - (0-19% control at 400 ppm) | +++ (90-100% control at 100 ppm) | – | 0% | ++ (90-100% control at 400 ppm) | –
7 | Fc1cccc(F)c1CCNc1ccnc2c(F)cccc12 [Example 65, N-[2-(2,6-difluorophenyl)ethyl]-8-fluoro-4-quinolinamine] | 0% | – | + (20-89% control at 400 ppm) | - (0-19% control at 400 ppm) | + (20-89% control at 400 ppm) | 0% | – | + (20-89% control at 400 ppm) | - (0-19% control at 400 ppm) | 0% | – | - (0-19% control at 400 ppm) | +++ (90-100% control at 100 ppm) | 0% | – | ++ (90-100% control at 400 ppm) | –
8 | Fc1cccc(CCNc2ccnc3c(F)cccc23)c1 [Example 66, 8-fluoro-N-[2-(3-fluorophenyl)ethyl]-4-quinolinamine] | 0% | – | + (20-89% control at 400 ppm) | - (0-19% control at 400 ppm) | ++ (90-100% control at 400 ppm) | 0% | – | + (20-89% control at 400 ppm) | - (0-19% control at 400 ppm) | 0% | – | +++ (90-100% control at 100 ppm) | +++ (90-100% control at 100 ppm) | 0% | – | +++ (90-100% control at 100 ppm) | –
9 | COc1cc(CCNc2ccnc3ccccc23)cc(OC)c1 [Example 67, N-[2-(3,5-dimethoxyphenyl)ethyl]-4-quinolinamine] | 0% | – | - (0-19% control at 400 ppm) | - (0-19% control at 400 ppm) | + (20-89% control at 400 ppm) | 0% | – | - (0-19% control at 400 ppm) | - (0-19% control at 400 ppm) | 0% | – | + (20-89% control at 400 ppm) | ++ (90-100% control at 400 ppm) | 0% | – | + (20-89% control at 400 ppm) | –
10 | COc1ccccc1CCNc1ccnc2c(F)cccc12 [Example 68, 8-fluoro-N-[2-(2-methoxyphenyl)ethyl]-4-quinolinamine] | 0% | – | +++ (90-100% control at 100 ppm) | - (0-19% control at 400 ppm) | + (20-89% control at 400 ppm) | 0% | – | + (20-89% control at 400 ppm) | - (0-19% control at 400 ppm) | 0% | – | - (0-19% control at 400 ppm) | ++ (90-100% control at 400 ppm) | 0% | – | +++ (90-100% control at 100 ppm) | –
11 | Clc1cnc2ccccc2c1NCC(Cl)c1ccccc1 (stereo not shown) [Example 69, 3-chloro-N-(2-chloro-2-phenylethyl)-4-quinolinamine] | – | – | - (0-19% control at 400 ppm) | - (0-19% control at 400 ppm) | + (20-89% control at 400 ppm) | – | – | + (20-89% control at 400 ppm) | - (0-19% control at 400 ppm) | – | – | - (0-19% control at 400 ppm) | +++ (90-100% control at 100 ppm) | – | – | + (20-89% control at 400 ppm) | mortality at 12 ppm (corn rootworm): 0%; mortality at 200 ppm [4]: 0%; mortality at 200 ppm [7]: 0%; mortality at 200 ppm [10]: 0%
